In patent US8394395B2, “Use of a cosmetic composition for the care of fatty skin” (Laboratories Clarins, priority 2006, dated 2013):

Tests used:
[1] = test system: human sebocytes (Hs 917.T, ATCC line No. CRL-7669); experiment: Sebocyte proliferation, M.T.T. colorimetric test; format: cell-based; settings: 72 hours of culture, versus reference medium
Description: (§1) A line of human sebocytes (Hs 917.T, ATCC line No. CRL-7669) was cultured in Dulbecco's modified Eagle's medium with 4.5 g/l of D-glucose and 10% of fetal calf serum. These adherent cells have a polygonal morphology and large nuclei.
Proliferation was evaluated by means of a validated colorimetric test, the M.T.T. test (dimethyl thiazolyl diphenyl tetrazolium) (according to Mosmann, J. Immunol. Meth. 1983 65: 55-63). This compound is metabolized by the mitochondria, to give blue formazan crystals, the amount of which depends directly on the activity of the mitochondrial succinate dehydrogenase enzyme and on the number of living cells.
As a result of this, the proliferation is measured by colorimetery (570 nm).
The proliferation was therefore evaluated according to the following conditions: • sebocytes in reference medium; • sebocytes cultured in the presence of the reference medium supplemented with chrysin at the 2 concentrations of 10^−3% and 5×10^−3%.
For each condition performed in sextuplet, the proliferation was analyzed after 72 hours of culture.

[2] = test system: human sebocytes (Hs 917.T, ATCC line No. CRL-7669); experiment: Sebocyte viability (MTT exclusion test); format: cell-based; settings: chrysin concentrations of 10^−3% and 5×10^−3%; compared with conventional culture medium
Description: as §1, with “nuclei. Firstly, we verified the viability (MTT exclusion test) of the sebocytes in the presence of chrysin at various concentrations, in comparison with their conventional culture medium.” for “nuclei.”

O=c1cc(-c2ccccc2)oc2cc(O)cc(O)c12 [chrysin, 5,7-dihydroxyflavone]
difference in proliferation of human sebocytes in culture ([1]; chrysin concentration 5×10^−3%): −18.4%
difference in proliferation of human sebocytes in culture ([1]; chrysin concentration 10^−3%): −10.5%
cytotoxicity on sebocytes (viability) [2]: did not induce any cytotoxicity
